In brackets after ≈: the same amount, converted by molar mass. Read-outs that look alike come from different tables or passages of the source. Non-standard residues stand in square brackets, D forms with d. Residues, ends and D or L forms follow the SMILES beside them. Orn = NCCC[C@H](N)C(=O)O; Dab = NCC[C@H](N)C(=O)O
Tests used:
[1] = test system: P. aeruginosa PAO1 GFP; assay: MIC against planktonic cells, absorbance at 600 nm; format: cell-based, Pseudomonas aeruginosa; settings: absorbance 600 nm
Protocol: (§1) Figure 1 The MIC (A), MBIC (B) and MBEC (C) values for the tritrpticin analog peptides were assessed against Pa PAO1 GFP. The MIC values were determined by measuring the absorbance of bacterial cells at 600 nm. The MBIC and MBEC values were determined by recording the fluorescence at 480 nm and 530 nm from the biofilms of GFP-expressing PAO1. Three biological replicates were run for each test sample, and the mean was calculated for the recorded absorption or fluorescence values. In the graphs, the error bars represent the standard deviation (±SD).
(§2) Figure 2 The MIC (A), MBIC (B) and MBEC (C) values for the tritrpticin-Lys derivative peptides were assessed against Pa PAO1 GFP. The MIC values were determined by measuring the absorbance of bacterial cells at 600 nm. The MBIC and MBEC values were determined by recording the fluorescence at 480 nm and 530 nm from the biofilms of GFP-expressing PAO1. Three replicates were run for each sample, the values were averaged and the error bars represent the standard deviation (±SD).
(§3) The methods to determine the MIC, MBIC and MBEC have been described in detail in our previous publication. The green fluorescent protein (GFP)-producing P. aeruginosa and S. aureus strains that were used in this work were also described in the earlier publication. Fluorescence detection was used as the main method to estimate the number of cells entrapped in the biofilm matrix. The methodology used for evaluation of the antibiofilm properties against an original Pseudomonas PA01 strain by crystal violet dye staining and the use of the Calgary biofilm device has been described elsewhere. The regular PA01 strain was provided by Dr. J. Harrison, Calgary. All measurements were carried out on an Eppendorf AF2200 plate reader. Every 96-well plate included controls for bacterial cell growth without peptide treatment and media alone. All measurements were carried out in triplicate, and the values in the figures represent the average and the error bars are standard deviation.

[2] = test system: P. aeruginosa PAO1 GFP; assay: MBIC, prevention of biofilm formation, GFP fluorescence method; format: cell-based, Pseudomonas aeruginosa
Protocol: as §1, §2, §3

[3] = test system: P. aeruginosa PAO1 GFP; assay: MBEC, biofilm eradication, GFP fluorescence method; format: cell-based, Pseudomonas aeruginosa
Protocol: as §1, §2, §3

[4] = test system: P. aeruginosa PAO1; format: cell-based, Pseudomonas aeruginosa; settings: Table 6, Tritrp-Lys derivatives; PAO1, BM2; absorbance 600 nm; three replicates; unit not given
Protocol: (§4) Figure 4 The MIC (A), MBIC (B) and MBRC (C) values for the peptides were assessed against P. aeruginosa PAO1 in the presence of 1× BM2. The inhibition of planktonic cells, the inhibition of biofilm cells and the reduction in biofilm cells were determined for the peptides by recording of the planktonic cells at 600 nm and quantification of biofilms formed by Pa PAO1 using crystal violet at 595 nm, respectively. Three biological replicates were run for each test sample, and the mean was calculated for the recorded absorption values. Data points with error bars indicate the standard deviation (±SD).
(§5) Figure 6 The MIC (A), MBIC (B) and MBEC (C) values for the tritrpticin-Lys derivatives against P. aeruginosa PAO1 were assessed by the crystal violet (CV) assay for the measurement of inhibition of biofilm formation and eradication of biofilm cells, respectively. The biofilm cells were rinsed, stained with 0.1% crystal violet for 15 min and then rinsed again. The CV was released from biofilm cells by the addition of 95% ethanol and quantified by reading on a spectrometer at 595 nm. Three replicates were run for each sample, the values were averaged and the error bars represent the standard deviation (±SD).
as §3

[5] = test system: P. aeruginosa PAO1; format: cell-based
Protocol: (§6) We note the close agreement with the MBIC and MBEC values determined by the fluorescence and CV methods, similar to what we found in our previous work for an S. aureus MRSA strain [23]. We also re-evaluated the MBEC values that are measured using the Calgary biofilm device (CBD), where biofilms form on pegs, rather than at the bottom of the 96-well plates. […] In particular, we find that the single Pro9Ala Tritrp-P9A-substituted version has better MIC, MBIC and MBEC activities than the parent peptide as well as the Tritrp-P59A analog with both prolines substituted to Ala.
as §4, §5, §3

[6] = test system: S. aureus GFP; assay: MIC against planktonic cells, absorbance at 600 nm; format: cell-based, Staphylococcus aureus; settings: Table 4; Sa GFP, 10% TSB and 0.1% glucose; absorbance 600 nm; mean of three biological replicates
Protocol: as §1, with “3” for “1”, “Sa” for “Pa PAO1”, “Sa.” for “PAO1.”
as §3

[7] = test system: S. aureus GFP; assay: MBIC, GFP fluorescence method; format: cell-based, Staphylococcus aureus; settings: Table 4, Sa GFP, 10% TSB and 0.1% glucose, mean of three biological replicates
Protocol: as §1, with “3” for “1”, “Sa” for “Pa PAO1”, “Sa.” for “PAO1.”
as §3

[8] = test system: S. aureus GFP; assay: MBEC, GFP fluorescence method; format: cell-based, Staphylococcus aureus; settings: Table 4, Sa GFP, 10% TSB and 0.1% glucose, mean of three biological replicates
Protocol: as §1, with “3” for “1”, “Sa” for “Pa PAO1”, “Sa.” for “PAO1.”
as §3

[9] = test system: S. aureus GFP; format: cell-based, Staphylococcus aureus; settings: Table 4; Sa GFP; lowest concentration of peptide with no bacterial growth seen on the spot agar plate
Source text: as §3

[10] = test system: P. aeruginosa PAO1; format: cell-based, Pseudomonas aeruginosa; settings: Table 5; PAO1, 1x BM2; biofilms on pegs, cells plated and counted; three biological replicates
Protocol: as §6
Figure 5 The MBEC values for the peptides were assessed against P. aeruginosa PAO1 in the presence of 1× BM2 medium. The eradication of biofilm cells was determined for the peptides using the counting of biofilm cells formed by Pa PAO1. Three biological replicates were run for each test sample, and the mean was calculated for counted cell values. Data points with error bars indicate the standard deviation (±SD).
as §3

[11] = Table 3, Tritrp-Lys derivatives, BM2 medium, three replicates
[12] = Table 6, Tritrp-Lys derivatives, PAO1, BM2, 0.1% crystal violet 15 min, released with 95% ethanol, 595 nm, three replicates, unit not given
[13] = Table 2, BM2 medium, mean of three biological replicates
[14] = Table 5, PAO1, 1x BM2, crystal violet at 595 nm, mean of three biological replicates
[15] = Table 5, minimum biofilm reduction concentration, PAO1, 1x BM2, crystal violet at 595 nm, mean of three biological replicates

Row | SMILES | MIC at 600 nm LD50 [1, 11] [µM] | MIC at 600 nm LD90 [1, 11] [µM] | MBIC at 488 and 530 nm LD50 [2, 11] [µmol/L] | MBIC at 488 and 530 nm LD90 [2, 11] [µmol/L] | MBEC at 488 and 530 nm LD50 [3, 11] [µmol/L] | MBEC at 488 and 530 nm LD90 [3, 11] [µmol/L] | MIC at 600 nm LD50 [4] | MIC at 600 nm LD50 [1, 13] [µM] | MIC at 600 nm LD90 [1, 13] [µM] | MBIC at 488 and 530 nm LD50 [2, 13] [µmol/L] | MBIC at 488 and 530 nm LD90 [2, 13] [µmol/L] | MBEC at 488 and 530 nm LD50 [3, 13] [µmol/L] | MBEC at 488 and 530 nm LD90 [3, 13] [µmol/L] | MIC at 600 nm LD50 [6] [µM] | MIC at 600 nm LD90 [6] [µM] | MBIC at 488 and 530 nm LD50 [7] [µmol/L] | MBIC at 488 and 530 nm LD90 [7] [µmol/L] | MBEC at 488 and 530 nm LD50 [8] [µmol/L] | MBEC at 488 and 530 nm LD90 [8] [µmol/L] | MBC Agar Plate [9] [µM] | other results
1 | CC(C)C[C@H](NC(=O)[C@H](Cc1ccccc1)NC(=O)[C@@H]1CCCN1C(=O)[C@H](Cc1c[nH]c2ccccc12)NC(=O)[C@H](Cc1c[nH]c2ccccc12)NC(=O)[C@H](Cc1c[nH]c2ccccc12)NC(=O)[C@@H]1CCCN1C(=O)[C@H](Cc1ccccc1)NC(=O)[C@H](CCCN)NC(=O)[C@H](CCCN)NC(=O)[C@@H](N)C(C)C)C(=O)N[C@@H](CCCN)C(=O)N[C@@H](CCCN)C(N)=O [Tritrp-Orn] (H-V[Orn][Orn]FPWWWPFL[Orn][Orn]-NH2; N-terminus assumed) | 16 (≈ 27.7 µg/mL) | 16 (≈ 27.7 µg/mL) | 16 | 16 | 64 | 128 | 16 |  |  |  |  |  |  |  |  |  |  |  |  |  | MIC at 600 nm LD90 [4]: 16; MBEC (CV at 595 nm) LD90 [5, 12]: 128; MBIC (CV at 595 nm) LD90 [5, 12]: 32
2 | CC(C)C[C@H](NC(=O)[C@H](Cc1ccccc1)NC(=O)[C@@H]1CCCN1C(=O)[C@H](Cc1c[nH]c2ccccc12)NC(=O)[C@H](Cc1c[nH]c2ccccc12)NC(=O)[C@H](Cc1c[nH]c2ccccc12)NC(=O)[C@@H]1CCCN1C(=O)[C@H](Cc1ccccc1)NC(=O)[C@H](CCN)NC(=O)[C@H](CCN)NC(=O)[C@@H](N)C(C)C)C(=O)N[C@@H](CCN)C(=O)N[C@@H](CCN)C(N)=O [Tritrp-Dab] (H-V[Dab][Dab]FPWWWPFL[Dab][Dab]-NH2; N-terminus assumed) | 8 (≈ 13.4 µg/mL) | 16 (≈ 26.8 µg/mL) | 8 | 16 | 16 | 64 | 16 |  |  |  |  |  |  |  |  |  |  |  |  |  | MIC at 600 nm LD90 [4]: 16; MBEC (CV at 595 nm) LD90 [5, 12]: 64; MBIC (CV at 595 nm) LD90 [5, 12]: 16
3 | CC[C@H](C)[C@H](N)C(=O)N[C@@H](CC(C)C)C(=O)N1CCC[C@H]1C(=O)N[C@@H](Cc1c[nH]c2ccccc12)C(=O)N[C@@H](CCCCN)C(=O)N[C@@H](Cc1c[nH]c2ccccc12)C(=O)N1CCC[C@H]1C(=O)N[C@@H](Cc1c[nH]c2ccccc12)C(=O)N[C@@H](Cc1c[nH]c2ccccc12)C(=O)N1CCC[C@H]1C(=O)N[C@@H](Cc1c[nH]c2ccccc12)C(=O)N[C@@H](CCCNC(=N)N)C(=O)N[C@@H](CCCNC(=N)N)C(N)=O [Indolicidin, reference compound] |  |  |  |  |  |  |  | 8 (≈ 15.3 µg/mL) | 32 (≈ 61 µg/mL) | 8 | 32 | 32 | >128 | 4 (≈ 7.63 µg/mL) | 8 (≈ 15.3 µg/mL) | 4 | 8 | 2 | 8 | 8 (≈ 15.3 µg/mL) | MBIC (CV at 595 nm) LD50 [5, 14]: 32 µmol/L; MBIC (CV at 595 nm) LD90 [5, 14]: 32 µmol/L; MBRC (CV at 595 nm) LD50 [5, 15]: 64 µmol/L; MBRC (CV at 595 nm) LD90 [5, 15]: 64 µmol/L; MBEC from Calgary Biofilm Device (CBD) LD50 [10]: 128 µmol/L; MBEC from Calgary Biofilm Device (CBD) LD90 [10]: 128 µmol/L
4 | N=C(N)NCCC[C@H](NC(=O)[C@H](CCCNC(=N)N)NC(=O)[C@@H](N)CCCNC(=N)N)C(=O)N[C@@H](Cc1c[nH]c2ccccc12)C(=O)N[C@@H](Cc1c[nH]c2ccccc12)C(=O)N[C@@H](Cc1c[nH]c2ccccc12)C(N)=O [RRRWWW-NH2] (H-RRRWWW-NH2) |  |  |  |  |  |  |  | 32 (≈ 33.4 µg/mL) | 128 (≈ 134 µg/mL) | 16 | 128 | 64 | >128 | 1 (≈ 1.04 µg/mL) | 1 (≈ 1.04 µg/mL) | 1 | 1 | 0.5 | 4 | 4 (≈ 4.18 µg/mL) | 
5 | N=C(N)NCCC[C@H](NC(=O)[C@H](Cc1c[nH]c2ccccc12)NC(=O)[C@H](Cc1c[nH]c2ccccc12)NC(=O)[C@H](Cc1c[nH]c2ccccc12)NC(=O)[C@H](CCCNC(=N)N)NC(=O)[C@@H](N)CCCNC(=N)N)C(N)=O [RRWWWR-NH2] (H-RRWWWR-NH2) |  |  |  |  |  |  |  | 64 (≈ 66.8 µg/mL) | 128 (≈ 134 µg/mL) | 16 | 128 | 128 | >128 | 1 (≈ 1.04 µg/mL) | 1 (≈ 1.04 µg/mL) | 1 | 1 | 1 | 4 | 4 (≈ 4.18 µg/mL) | 

From PMC11858513, “Antibiofilm Activities of Tritrpticin Analogs Against Pathogenic Pseudomonas aeruginosa PA01 Strains” (Molecules, 2025)
